Key:
[1] = patients in an obeticholic acid treatment group; cited from earlier work
[2] = system: NASH-modeled golden hamsters; assay: NASH-modeled golden hamster (method as Example 4, changed doses); type: in vivo; details: obeticholic acid 5 mg/kg
Method: The experimental method is referred to the Example 4, except for addition of Ezetimibe group (0.3 mg/kg), dosage change to 5 mg/kg obeticholic acid for the obeticholic acid group, as well as dosage change to 5 mg/kg obeticholic acid and 0.3 mg/kg Ezetimibe for the obeticholic acid+Ezetimibe group. Specifically, a normal group (A), a model group (B), an obeticholic acid group (C), an obeticholic acid+Ezetimibe group (D) and an Ezetimibe group (E) are included in this example.
Liver tissue samples from individual golden hamsters after treatment were subjected to paraffin-sectioning, with results shown in FIG. 3.

[3] = system: NAFLD-modeled golden hamsters; assay: Simple high-fat diet-induced NAFLD-modeled golden hamster; type: in vivo; details: obeticholic acid 1 mg/kg, Ezetimibe 1 mg/kg, x ± s; for ALP / ALT / AST / HDL-C / LDL-C / TC / TG: plasma
Excerpt: Obeticholic acid and Ezetimibe each are formulated with 10% Kolliphor HS 15 (BASF, Lot. No. 21466288K0) to a desired concentration.
78 specific pathogen free (SPF) male golden hamsters were provided, each with a body weight (BW) around 70 to 90 g, and commercially available from Beijing Vital River Laboratory Animal Technology Co., Ltd. Animal permit number is SCXK (Jing) 2012-0001.
10 golden hamsters were fed with a base diet as a normal group, while 68 golden hamsters were fed with a high-fat diet formulated with 0.3% cholesterol, 12.5% palm oil and 87.2% base diet upon purchased. All of them had free access to water, and kept in a same light rhythm (day time/night time: 10 h/14 h). After 3 weeks of feed, the golden hamsters were fasted for 14 hours, with free access to water, and then sampled for blood in a volume of 0.8 mL from posterior orbital venous plexus the next day. The blood samples added with sodium heparin for anticoagulation were centrifuged at 5000 r·min^−1 for 10 minutes, and 300 μL of supernatant for each sample was transferred into an assay cup (in volume of microliter grade) of the Sysmex CHEX-180 automatic biochemical analyzer for determination of levels of TC, TG, LDL-C, HDL-C and ALT, with results for screening of the hamsters.
6 out of 10 golden hamsters fed with the base diet were selected as a normal group, while 30 out of 68 golden hamsters fed with the high-fat diet were grouped into 3 experimental groups randomly (i.e. 10 hamsters for each group), respectively named model group, obeticholic acid group (1 mg/kg) and obeticholic acid (1 mg/kg)+Ezetimibe (1 mg/kg) group. From the first administration at PM 4:00 of the day after grouping, the 3 experimental groups were started to be each administered in a dosage of 10 mL·kg^−1, where the model group was administered with 10% Kolliphor in an equal volume. During administration, the normal group was still fed with the base diet, and the 3 experimental groups were fed with the high-fat diet. At 2 weeks of administration, all the golden hamsters were fasted but accessible to water overnight, and anesthetized with ethyl ether on the morning of the next day for collection of blood samples (in a volume of 0.8 mL) from the posterior orbital venous plexus. The blood samples added with sodium heparin for anticoagulation were centrifuged at 5000 r·min^−1 for 10 minutes, and 300 μL of plasma for each sample was transferred into the Sysmex CHEX-180 automatic biochemical analyzer for determination of levels of TC, TG, LDL-C, HDL-C, ALT, AST and ALP. At 4 weeks of administration, plasma of each hamster was collected for determination of levels of TC, TG LDL-C, HDL-C, ALT, AST and ALP. Afterwards, the hamsters were anesthetized with ethyl ether deeply, followed by weighting and laparotomy by an abdominal median incision for observation of size, color and texture of liver. After photographed, the liver was taken out, washed with saline and dried with filter paper, and weighted for calculation of liver index. Subsequently, left lobe of liver was cut out quickly and placed into 10% of neutral buffered formalin for immobilization, followed by preparation of paraffin sections (with HE staining) for observation of change of liver tissue pathology.
The results are represented in x±s, and comparison among groups is performed by t-test.

[4] = system: cytochrome p450; details: 14C as a marker; cited from earlier work
[5] = after 4 weeks of administration
[6] = after 2 weeks of administration

## CC[C@H]1[C@@H](O)[C@@H]2[C@H](CC[C@]3(C)[C@@H]([C@H](C)CCC(=O)O)CC[C@@H]23)[C@@]2(C)CC[C@@H](O)C[C@@H]12 [Obeticholic acid, obeticholic acid]
[1]
  level of high density lipoprotein compared to a placebo control: lower
  level of low density lipoprotein compared to a placebo control: higher
  level of total cholesterol compared to a placebo control: higher
[2]
  blocking the progression of liver fibrosis (pathological sections of liver tissues): no effect
[2]; Ezetimibe 0.3 mg/kg
  infiltration and aggregation of inflammatory cells (pathological sections of liver tissues, FIG. 3): no effect
[3]; [5]
  liver index (%): 5.15 ± 0.33%
  ALP: 196.30 ± 18.91 U · L^−1
  ALT: 165.20 ± 44.90 U · L^−1
  AST: 80.80 ± 13.13 U · L^−1
  HDL-C: 3.51 ± 0.71 mmol/L
  LDL-C: 16.04 ± 13.52 mmol/L
  TC: 22.89 ± 5.91 mmol/L
  TG: 2.07 ± 0.97 mmol/L
[3]; [6]
  ALP: 190.20 ± 26.30 U · L^−1
  ALT: 120.50 ± 41.78^ U · L^−1
  AST: 59.20 ± 14.01 U · L^−1
  HDL-C: 2.70 ± 0.37 mmol/L
  LDL-C: 7.07 ± 3.22 mmol/L
  TC: 14.32 ± 3.15^ mmol · L^−1
  TG: 2.20 ± 0.52 mmol/L

## O=C1[C@H](CC[C@H](O)c2ccc(F)cc2)[C@@H](c2ccc(O)cc2)N1c1ccc(F)cc1 [Ezetimibe]
[4]
  metabolism by a primary drug metabolic enzyme (cytochrome p450): barely metabolized
[2]; Ezetimibe 0.3 mg/kg
  ALP level: reduces ALP level slightly
  fat content in liver cells (pathological sections of liver tissues, FIG. 3): not reducing fat content in liver significantly
  infiltration and aggregation of inflammatory cells (pathological sections of liver tissues, FIG. 3): ameliorating
  level of LDL in plasma: reduces levels of triglyceride, cholesterol, LDL, liver function enzymes in plasma significantly
  level of cholesterol in plasma: reduces levels of triglyceride, cholesterol, LDL, liver function enzymes in plasma significantly
  level of triglyceride in plasma: reduces levels of triglyceride, cholesterol, LDL, liver function enzymes in plasma significantly
  levels of liver function enzymes (alanine aminotransferase and aspartate aminotransferase) in plasma: reduces levels of triglyceride, cholesterol, LDL, liver function enzymes in plasma significantly
